# From patent US20210137958A1, “PHARMACEUTICAL COMPOSITIONS OF DECITABINE” (SHILPA MEDICARE LIMITED, priority 2018, published 2021)
# Assays:
# [1] = format: physicochemical
# From the text: a) Impurity 1 is formed in acidic and basic conditions. Impurity 1 is chemically 5-Azacytosine or 4-amino-1, 3, 5-triazin-2(1H)-one and represented by following structure.
# b) Impurity 2 is an oxidation impurity formed by peroxide stress and is chemically (4-amino-1-(tetrahydro-4-hydroxy-5-(Hydroxymethyl)furan-2-yl)-1,3,5-triazin-2(1H)-one or alpha isomer and represented by following structure
# c) Impurity 3 is an oxidation impurity formed by peroxide stress. Impurity 3 is chemically represented as (2-Deoxy-ribufuranosyl-3-guanylurea) or deformyl impurity and represented by following structure
# d) NFDU impurity is a transition impurity and increases on oxidation by peroxide stress chemically represented as N-(formylamidino) N′-β-D-2′-deoxyribofuranosylurea and structurally represented as […]
# [2] = reconstituted and diluted Dacogen solution; cited from earlier work
smiles,measurement,setting,value
"Nc1ncn([C@H]2C[C@H](O)[C@@H](CO)O2)c(=O)n1 [decitabine, 4-amino-1-(2-deoxy-β-D-erythro-pentofuranosyl)-1,3,5-triazin-2(1H)-one]",Impurities obtained on forced degradation,[1],"four known impurities namely Impurity-1, Impurity-2, Impurity-3 and NFDU are obtained"
same,Stability in aqueous media,[2],highly unstable
